Experimental findings from patent US9109041B2, “Analog compounds of analgesic peptides derived from the venom of crotalus durissus terrificus snakes, their uses, compositions, methods of preparation and purification” (priority 2004, dated 2015) are described below.

The subject of assay [1] is hyperalgesia induced by the Walker 256 tumor. As to the kind of experiment: hyperalgesia induced by the Walker 256 tumor (cancer pain). The class given is in vivo, rat. Particulars: saline + antagonist alone i.pl. (ICI 10, nor-BNI 50, CTOP 20 μg/paw); for pain threshold, FM / pain threshold, IM: 5th day; for pain threshold, FM: 2 hours after treatment; for pain threshold, IM: before treatment; for pain threshold, BM: before injection of the tumor. From the text: The Walker 256 tumor cells were kindly provided by Prof. Dr. Rui Curi, of the Physiology and Biophysics Department of the Biomedical Science Institute of the University of São Paulo. The tumor-bearing animal was sacrificed and the tumoral tissue was removed, placed on a Petri dish containing 0.9% saline. Then, the tumor was cut in smaller parts, and transferred into a beaker containing saline. The material was triturated with a fine-cut, until the tumor is totally fragmented. Then, this material was filtered in gauze and the liquid collected in a beaker. All procedures were performed on ice. The material of the beaker was transferred to 50 ml plastic tubes and centrifuged at 4° C., for 10 minutes, at 1200 rpm. After centrifugation, the supernatant was rejected and the precipitate resuspended in saline 0.9%. For cell counts, the suspension of cells was diluted (1:100) in saline. An aliquot (200 μl) was removed and placed in a test tube containing 200 μl of 1% Trypan blue. The cell number was determined in optical microscope using Neubauer's chamber. The cellular viability was determined considering viable the light-refracting cells.
After determining the number of cells, 1 ml of the suspension, containing 1×10^7 cells, was injected by intraperitoneal route, on the right side of the rats to obtain liquid tumor (ascites).
Five days after injection, the rats with ascites were sacrificed and the ascetic fluid collected from the peritoneal cavity and placed in a test tube containing EDTA. The liquid was diluted 100 times with phosphate-buffered saline (PBS), pH 7.4. The cell count was done after dilution with Trypan blue, as described above. Tumor cell count was ascertained to 1×10^6 cells in 100 μl, by dilution with PBS. This number of cells was determined in preliminary tests for induction of cancer pain in rats. In this final cell number adjustment, the volume of antibiotic (Benzetacil®) added to the suspension (150,000 units of antibiotic/10 ml of suspension), was taken into consideration. The antibiotic was used in order to avoid microbial contamination. The cells were injected by intraplantar route into one of the rat hind paws. Control animals were injected with PBS into the contralateral paw, in the same experimental conditions.
Hyperalgesia, allodynia and spontaneous pain were determined before (BM-basal measurement) and 5 days after tumor cell injection, before (IM-initial measurement) and 2 hours after (FM-Final measurement) peptide administration.
The results were analyzed comparing the mean values of the basal and initial measurements, or of the initial and final measurements or, when determined, by comparing the mean values obtained in the different experimental groups (Tables 17, 18, 19).
For this purpose, the animals were treated with CTOP, a specific μ receptor antagonist (20 μg/paw), nor-BNI, a specific κ receptor antagonist (50 μg/paw) or with ICI 174,864, a specific δ receptor antagonist (10 μg/paw). The antagonists were injected by intraplantar route. The peptide was administered in the dose of 6 μg/kg, orally, immediately before the injection of the opioid antagonists. The results were analyzed comparing the mean values of the basal and initial measurements, or of the initial and final measurements or, when determined, by comparing the mean values obtained in the different experimental groups ( Table 20).

For assay [2], the system named is prostaglandin E2-induced hyperalgesia. As to the kind of experiment: rat paw pressure test, prostaglandin E2-induced hyperalgesia. The conditions noted are these: for pain threshold, IM (g) ± S.E.M.: saline p.o. + antagonist alone i.pl. (ICI174,864 10 μg/paw; nor-BNI 50 μg/leg; CTOP 20 μg/leg), before PGE2; for pain threshold, FM (g) ± S.E.M: saline p.o. + antagonist alone i.pl. with PGE2 (ICI174,864 10 μg/paw; nor-BNI 50 μg/leg; CTOP 20 μg/leg), 3 h after PGE2.

For the compound `Oc1ccc2c3c1O[C@H]1c4[nH]c5c(c4C[C@@]4(O)[C@@H](C2)N(CC2CC2)CC[C@]314)C[C@@]1(O)[C@H]2Cc3ccc(O)c4c3[C@@]1(CCN2CC1CC1)[C@H]5O4` [nor-BNI, nor-Binalthorphimine, reference compound], in assay [1], the “pain threshold, FM” value was found to be 32 ± 1.66 g; the “pain threshold, IM” value worked out at 33 ± 3.33 g; the “pain threshold, BM” value amounted to 70 ± 2.88 g. Moreover, in assay [2], the “pain threshold, IM (g) ± S.E.M.” value is given as 72 ± 1.44 g and the “pain threshold, FM (g) ± S.E.M” value stood at 56 ± 1.25 g.

As for CTOP [reference compound], in assay [1], the “pain threshold, FM” value was 32 ± 1.66 g; the “pain threshold, IM” value was found to be 35 ± 2.88 g; the “pain threshold, BM” value came to 68 ± 1.66 g. For the same compound, in assay [2], the “pain threshold, IM (g) ± S.E.M.” value came to 74 ± 2.39 g and the “pain threshold, FM (g) ± S.E.M” value came to 56 ± 2.39 g.
